{"source": "patent US10080775B2", "about": "“Peptide having skin whitening activity, and use thereof” (CAREGEN CO., LTD., priority 2017, dated 2018)", "test_system": "melanin-forming cells (B16F10 cell line)", "experiment": "Cytotoxicity test (MTT assay)", "assay_type": "cell-based, mouse", "details": "B16F10, 1 uM to 200 uM, 72 hours, serum-free medium", "experimental": "After melanin-forming cells (B16F10 cell line) dispensed in 48-well culture plates were incubated in a 37° C. incubator for 24 hours, the medium for each plate was removed and replaced with serum-free medium, and then the cells were treated with the peptide of the present invention at different concentrations (1, 10, 50, 100, 150, 200 uM). After the cells were incubated for 72 hours, the MTT reagent was added, followed by reaction for 4 hours. Then, the generated formazan was dissolved in DMSO, and the absorbance was measured at 560 nm.", "note": "Peptide text beside a SMILES is read from it.", "data": [{"smiles": "CCCC(CCC)C(=O)N[C@H](C(=O)N[C@@H](Cc1c[nH]c2ccccc12)C(=O)N[C@@H](CO)C(=O)N[C@@H](CC(C)C)C(=O)N[C@@H](CC(=O)O)C(=O)N[C@H](C(=O)N[C@@H](CCC(N)=O)C(=O)N[C@@H](Cc1ccc(O)cc1)C(=O)NCC(=O)NCC(=O)N[C@@H](CCCNC(=N)N)C(=O)NCC(=O)N[C@@H](CC(=O)O)C(=O)O)[C@@H](C)O)[C@@H](C)CC", "note": "[Valprooyl-Ile-Trp-Ser-Leu-Asp-Thr-Gln-Tyr-Gly-Gly-Arg-Gly-Asp-COOH] (HELM PEPTIDE1{[CCCC(CCC)C(=O)[*:2]].I.W.S.L.D.T.Q.Y.G.G.R.G.D}$$$$V2.0)", "values": [{"measurement": "cytotoxicity on melanocytes (MTT assay)", "result": "no cytotoxicity was observed"}]}]}
